Reference: patent publication US20100298141A1, “SUBSTITUTED PYRIDINE N-OXIDE HERBICIDES” (E. I. DU PONT DE NEMOURS AND COMPANY, priority 2007, published 2010)

Key:
downy brome = experiment: Test C pre-/postemergence test; type: in vivo, Bromus tectorum
Summary of the method: (§1)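 Compounds in a non-phytotoxic solvent with surfactant applied preemergence to seeded pots and, at the same time, postemergence to plants 2–18 cm tall (1- to 4-leaf stage). Paddy tests: pots flooded to 3 cm, compound applied into the water, depth held throughout.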

rice = experiment: Test C flooded paddy test; type: in vivo, Oryza sativa; settings: Flood
Summary of the method: (§2)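 Pots were flooded to 3 cm above the soil surface at treatment, compound applied directly to the paddy water, and that depth held throughout. Plants were kept in a greenhouse for 13 to 15 days, then visually rated against untreated controls.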

soybean = experiment: Test C pre-/postemergence test; type: in vivo, Glycine max
Summary of the method: as §1

wheat = experiment: Test A pre-/postemergence greenhouse test; type: in vivo, Triticum aestivum; settings: for Plant response rating, Wheat: 0 to 100 scale where 0 is no effect and 100 is complete control; for Wheat plant response rating: 0 to 100 scale
Summary of the method: (§3)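 Two application timings were run side by side in the greenhouse. Before emergence, compound went onto the soil surface of loam–sand pots as a directed spray; after emergence, plants at 2–10 cm and the one- to two-leaf stage were treated. Visual injury versus controls was rated at approximately day ten.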

lambsquarters = experiment: Test C pre-/postemergence test; type: in vivo, Chenopodium album; settings: for Lambsquarters plant response rating: preemergence, scale 0 (no effect) to 100 (complete control)
Summary of the method: as §1

bermudagrass = experiment: Test C pre-/postemergence test; type: in vivo, Cynodon dactylon
Summary of the method: as §1

crabgrass = experiment: Test C pre-/postemergence test; type: in vivo, Digitaria sanguinalis
Summary of the method: as §1

velvetleaf = experiment: Test A pre-/postemergence greenhouse test; type: in vivo, Abutilon theophrasti; settings: for Plant response rating, Velvetleaf: 0 to 100 scale where 0 is no effect and 100 is complete control; for Velvetleaf plant response rating: 0 to 100 scale
Summary of the method: as §3

barnyardgrass = experiment: Test C flooded paddy test; type: in vivo, Echinochloa crus-galli; settings: Flood
Summary of the method: as §2

corn = experiment: Test A pre-/postemergence greenhouse test; type: in vivo, Zea mays; settings: for Plant response rating, Corn: 0 to 100 scale where 0 is no effect and 100 is complete control; for Corn plant response rating: 0 to 100 scale
Summary of the method: as §3

giant foxtail [1] = experiment: Test A pre-/postemergence greenhouse test; type: in vivo, Setaria faberi; settings: for Plant response rating, Foxtail, Giant: 0 to 100 scale where 0 is no effect and 100 is complete control; for Foxtail, Giant plant response rating: 0 to 100 scale
Summary of the method: as §3

morningglory = experiment: Test C pre-/postemergence test; type: in vivo, Ipomoea coccinea
Summary of the method: as §1

pigweed = experiment: Test C pre-/postemergence test; type: in vivo, Amaranthus retroflexus; settings: for Plant response rating (0 to 100), Pigweed / Plant response rating, Pigweed: Postemergence; for Plant response rating, Pigweed: scale 0 to 100, 0 no effect, 100 complete control
Summary of the method: as §1

johnsongrass = experiment: Test C pre-/postemergence test; type: in vivo, Sorghum halepense
Summary of the method: as §1

giant foxtail [2] = experiment: Test C pre-/postemergence test; type: in vivo, Setaria faberii
Summary of the method: as §1

Surinam grass = experiment: Test C pre-/postemergence test; type: in vivo, Brachiaria decumbens; settings: for Plant response rating (0 to 100), Surinam Grass: Postemergence
Summary of the method: as §1

[3] = 62 g ai/ha, Preemergence, scale 0 to 100
[4] = 125 g ai/ha, preemergence, scale 0 (no effect) to 100 (complete control)
[5] = Postemergence, 125 g ai/ha, scale 0 to 100, 0 no effect, 100 complete control
[6] = Postemergence, 250 g ai/ha, scale 0 to 100, 0 no effect, 100 complete control
[7] = Preemergence, 31 g ai/ha, scale 0 to 100 (0 no effect, 100 complete control)
[8] = preemergence, 250 g ai/ha, scale 0 (no effect) to 100 (complete control)
[9] = 62 g ai/ha, scale 0 to 100 (0 no effect, 100 complete control)
[10] = 250 g ai/ha, scale 0 to 100, 0 no effect, 100 complete control, 13 to 15 days
[11] = Postemergence, 500 g ai/ha, 0 is no effect, 100 is complete control
[12] = Preemergence, 125 g ai/ha, 0 no effect, 100 complete control

CC(Oc1c(CS(=O)(=O)c2cccc[n+]2[O-])c(C(F)(F)F)nn1C)C(F)(F)F (stereo not drawn) [Compound 82]
80: Bromegrass, Downy plant response rating (downy brome; [4]) | Velvetleaf plant response rating (velvetleaf; [11]) | Plant response rating, Barnyardgrass (barnyardgrass; [10]) | Johnsongrass plant response rating (johnsongrass; [3]) | Johnsongrass plant response rating (johnsongrass; [4]) | Surinam Grass plant response rating (Surinam grass; [3])
98: Crabgrass, Large plant response rating (crabgrass; [4]) | Morningglory plant response rating (morningglory; [4])
85: Crabgrass, Large plant response rating (crabgrass; [3]) | Plant response rating, Crabgrass, Large (crabgrass; [7]) | Pigweed plant response rating (pigweed; [3]) | Foxtail, Giant plant response rating (giant foxtail [2]; [3])
90: Plant response rating, Foxtail, Giant (giant foxtail [1]; Postemergence, 125 g ai/ha) | Foxtail, Giant plant response rating (giant foxtail [1]; [11]) | Surinam Grass plant response rating (Surinam grass; [4]) | Surinam Grass plant response rating (Surinam grass; [8])
60: Bromegrass, Downy plant response rating (downy brome; [3]) | Plant response rating, Rice (rice; [10]) | Wheat plant response rating (wheat; [11]) | Velvetleaf plant response rating (velvetleaf; [12])
20: Plant response rating, Soybean (soybean; [6]) | Corn plant response rating (corn; [11])
70: Soybean plant response rating (soybean; [8]) | Plant response rating, Wheat (wheat; Preemergence, 500 g ai/ha) | Morningglory plant response rating (morningglory; [3]) | Plant response rating, Foxtail, Giant (giant foxtail [2]; [7]) | Plant response rating, Surinam Grass (Surinam grass; [7])
50: Plant response rating, Bromegrass, Downy (downy brome; [7]) | Plant response rating, Corn (corn; Preemergence, 500 g ai/ha)
40: Plant response rating, Johnsongrass (johnsongrass; [6]) | Plant response rating, Johnsongrass (johnsongrass; [7]) | Plant response rating, Foxtail, Giant (giant foxtail [2]; [5]) | Plant response rating, Foxtail, Giant (giant foxtail [2]; [6])
0: Plant response rating (0 to 100), Bromegrass, Downy (downy brome; Postemergence, 31 g ai/ha) | Plant response rating (0 to 100), Bromegrass, Downy (downy brome; Postemergence, 62 g ai/ha) | Plant response rating, Bromegrass, Downy (downy brome; [5]) | Plant response rating, Bromegrass, Downy (downy brome; [6]) | Plant response rating, Rice (rice; [9]) | Plant response rating (0 to 100), Soybean (soybean; Postemergence, 31 g ai/ha) | Plant response rating (0 to 100), Soybean (soybean; Postemergence, 62 g ai/ha) | Plant response rating, Soybean (soybean; [5]) | Plant response rating, Soybean (soybean; [7]) | Lambsquarters plant response rating (lambsquarters; 125 g ai/ha) | Plant response rating (0 to 100), Lambsquarters (lambsquarters; Postemergence, 31 g ai/ha) | Plant response rating (0 to 100), Lambsquarters (lambsquarters; Postemergence, 62 g ai/ha) | Plant response rating, Lambsquarters (lambsquarters; [6]) | Plant response rating (0 to 100), Bermudagrass (bermudagrass; Postemergence, 31 g ai/ha) | Plant response rating (0 to 100), Bermudagrass (bermudagrass; Postemergence, 62 g ai/ha) | Plant response rating, Bermudagrass (bermudagrass; [5]) | Plant response rating, Bermudagrass (bermudagrass; [6]) | Plant response rating (0 to 100), Crabgrass, Large (crabgrass; Postemergence, 31 g ai/ha) | Plant response rating (0 to 100), Crabgrass, Large (crabgrass; Postemergence, 62 g ai/ha) | Plant response rating, Crabgrass, Large (crabgrass; [5]) | Plant response rating, Barnyardgrass (barnyardgrass; [9]) | Plant response rating, Corn (corn; Postemergence, 125 g ai/ha) | Corn plant response rating (corn; [12]) | Plant response rating (0 to 100), Morningglory (morningglory; Postemergence, 31 g ai/ha) | Plant response rating (0 to 100), Morningglory (morningglory; Postemergence, 62 g ai/ha) | Plant response rating, Morningglory (morningglory; [5]) | Plant response rating, Morningglory (morningglory; [6]) | Plant response rating, Morningglory (morningglory; [7]) | Plant response rating (0 to 100), Pigweed (pigweed; 31 g ai/ha) | Plant response rating (0 to 100), Pigweed (pigweed; 62 g ai/ha) | Plant response rating, Pigweed (pigweed; 125 g ai/ha) | Plant response rating (0 to 100), Johnsongrass (johnsongrass; Postemergence, 31 g ai/ha) | Plant response rating (0 to 100), Johnsongrass (johnsongrass; Postemergence, 62 g ai/ha) | Plant response rating (0 to 100), Foxtail, Giant (giant foxtail [2]; Postemergence, 31 g ai/ha) | Plant response rating (0 to 100), Foxtail, Giant (giant foxtail [2]; Postemergence, 62 g ai/ha) | Plant response rating (0 to 100), Surinam Grass (Surinam grass; 31 g ai/ha) | Plant response rating (0 to 100), Surinam Grass (Surinam grass; 62 g ai/ha)
30: Soybean plant response rating (soybean; [3]) | Plant response rating, Wheat (wheat; Postemergence, 125 g ai/ha) | Wheat plant response rating (wheat; [12])
10: Plant response rating, Crabgrass, Large (crabgrass; [6]) | Plant response rating, Velvetleaf (velvetleaf; Postemergence, 125 g ai/ha) | Plant response rating, Pigweed (pigweed; 250 g ai/ha) | Plant response rating, Johnsongrass (johnsongrass; [5])
100: Bromegrass, Downy plant response rating (downy brome; [8]) | Lambsquarters plant response rating (lambsquarters; 250 g ai/ha) | Bermudagrass plant response rating (bermudagrass; 62 g ai/ha, Preemergence, scale 0 to 100 (0 no effect, 100 complete control)) | Bermudagrass plant response rating (bermudagrass; [4]) | Plant response rating, Bermudagrass (bermudagrass; [7]) | Bermudagrass plant response rating (bermudagrass; [8]) | Crabgrass, Large plant response rating (crabgrass; [8]) | Plant response rating, Velvetleaf (velvetleaf; Preemergence, 500 g ai/ha) | Foxtail, Giant plant response rating (giant foxtail [1]; [12]) | Plant response rating, Foxtail, Giant (giant foxtail [1]; Preemergence, 500 g ai/ha) | Morningglory plant response rating (morningglory; [8]) | Pigweed plant response rating (pigweed; [4]) | Pigweed plant response rating (pigweed; [8]) | Johnsongrass plant response rating (johnsongrass; [8]) | Foxtail, Giant plant response rating (giant foxtail [2]; [4]) | Foxtail, Giant plant response rating (giant foxtail [2]; [8])
